Measurements from patent US9492471B2, “Methods of treating a disease or disorder associated with Bruton'S Tyrosine Kinase” (Celgene Avilomics Research, Inc., priority 2013, dated 2016).
Like-named read-outs stand apart in the source and are kept apart here.

Experiments:
Assay in all cases: HotSpot kinase profiling
Type in all cases: biochemical
TAOK2/TAO1 = molecular target: T1, TAOK2/TAO1 (Homo sapiens, UniProt Q9UL54)
T1 construct: purchased Reaction Biology Corp
T1 sequence (Q9UL54 1-1235): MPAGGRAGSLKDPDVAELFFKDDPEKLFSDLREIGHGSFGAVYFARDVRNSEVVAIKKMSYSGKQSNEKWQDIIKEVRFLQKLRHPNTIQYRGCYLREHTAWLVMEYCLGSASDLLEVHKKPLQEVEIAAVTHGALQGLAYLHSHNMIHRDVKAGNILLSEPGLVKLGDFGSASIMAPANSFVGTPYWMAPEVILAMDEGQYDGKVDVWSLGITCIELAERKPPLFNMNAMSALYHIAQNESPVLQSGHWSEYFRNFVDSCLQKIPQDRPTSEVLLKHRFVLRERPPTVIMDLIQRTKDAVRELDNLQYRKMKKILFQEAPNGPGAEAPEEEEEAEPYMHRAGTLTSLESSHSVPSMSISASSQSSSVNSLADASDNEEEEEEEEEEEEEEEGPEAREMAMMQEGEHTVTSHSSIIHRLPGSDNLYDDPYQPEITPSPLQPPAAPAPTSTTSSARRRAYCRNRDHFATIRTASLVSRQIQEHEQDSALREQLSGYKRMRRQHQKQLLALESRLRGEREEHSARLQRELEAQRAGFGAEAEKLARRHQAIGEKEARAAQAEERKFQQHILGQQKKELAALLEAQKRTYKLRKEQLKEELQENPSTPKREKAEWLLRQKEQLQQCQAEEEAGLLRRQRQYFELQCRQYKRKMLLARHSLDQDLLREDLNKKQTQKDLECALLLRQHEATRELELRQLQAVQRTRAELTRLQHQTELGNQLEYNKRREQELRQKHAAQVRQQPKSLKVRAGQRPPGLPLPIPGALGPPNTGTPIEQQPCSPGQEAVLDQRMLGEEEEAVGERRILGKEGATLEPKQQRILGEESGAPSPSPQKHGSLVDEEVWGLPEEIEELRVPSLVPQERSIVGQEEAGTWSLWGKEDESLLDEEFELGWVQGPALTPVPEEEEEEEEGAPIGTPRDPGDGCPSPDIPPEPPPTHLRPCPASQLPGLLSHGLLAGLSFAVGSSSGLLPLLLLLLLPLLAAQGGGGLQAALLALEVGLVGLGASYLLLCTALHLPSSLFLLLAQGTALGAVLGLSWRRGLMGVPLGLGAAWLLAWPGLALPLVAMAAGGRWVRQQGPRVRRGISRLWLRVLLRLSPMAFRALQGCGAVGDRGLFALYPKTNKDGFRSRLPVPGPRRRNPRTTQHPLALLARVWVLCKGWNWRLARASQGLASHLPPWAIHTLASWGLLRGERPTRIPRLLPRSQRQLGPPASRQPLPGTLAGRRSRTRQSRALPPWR
Procedure, shortened: (§1)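 P81 filtration radiometric readout; 2 h incubation at room temperature; 0.1% phosphoric acid wash; DMSO negative control; % inhibition, mean of replicate runs.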

KDR/VEGFR2 = molecular target: T2, KDR/VEGFR2 (Homo sapiens, UniProt P35968)
T2 construct: purchased Reaction Biology Corp
T2 sequence (P35968 20-1356): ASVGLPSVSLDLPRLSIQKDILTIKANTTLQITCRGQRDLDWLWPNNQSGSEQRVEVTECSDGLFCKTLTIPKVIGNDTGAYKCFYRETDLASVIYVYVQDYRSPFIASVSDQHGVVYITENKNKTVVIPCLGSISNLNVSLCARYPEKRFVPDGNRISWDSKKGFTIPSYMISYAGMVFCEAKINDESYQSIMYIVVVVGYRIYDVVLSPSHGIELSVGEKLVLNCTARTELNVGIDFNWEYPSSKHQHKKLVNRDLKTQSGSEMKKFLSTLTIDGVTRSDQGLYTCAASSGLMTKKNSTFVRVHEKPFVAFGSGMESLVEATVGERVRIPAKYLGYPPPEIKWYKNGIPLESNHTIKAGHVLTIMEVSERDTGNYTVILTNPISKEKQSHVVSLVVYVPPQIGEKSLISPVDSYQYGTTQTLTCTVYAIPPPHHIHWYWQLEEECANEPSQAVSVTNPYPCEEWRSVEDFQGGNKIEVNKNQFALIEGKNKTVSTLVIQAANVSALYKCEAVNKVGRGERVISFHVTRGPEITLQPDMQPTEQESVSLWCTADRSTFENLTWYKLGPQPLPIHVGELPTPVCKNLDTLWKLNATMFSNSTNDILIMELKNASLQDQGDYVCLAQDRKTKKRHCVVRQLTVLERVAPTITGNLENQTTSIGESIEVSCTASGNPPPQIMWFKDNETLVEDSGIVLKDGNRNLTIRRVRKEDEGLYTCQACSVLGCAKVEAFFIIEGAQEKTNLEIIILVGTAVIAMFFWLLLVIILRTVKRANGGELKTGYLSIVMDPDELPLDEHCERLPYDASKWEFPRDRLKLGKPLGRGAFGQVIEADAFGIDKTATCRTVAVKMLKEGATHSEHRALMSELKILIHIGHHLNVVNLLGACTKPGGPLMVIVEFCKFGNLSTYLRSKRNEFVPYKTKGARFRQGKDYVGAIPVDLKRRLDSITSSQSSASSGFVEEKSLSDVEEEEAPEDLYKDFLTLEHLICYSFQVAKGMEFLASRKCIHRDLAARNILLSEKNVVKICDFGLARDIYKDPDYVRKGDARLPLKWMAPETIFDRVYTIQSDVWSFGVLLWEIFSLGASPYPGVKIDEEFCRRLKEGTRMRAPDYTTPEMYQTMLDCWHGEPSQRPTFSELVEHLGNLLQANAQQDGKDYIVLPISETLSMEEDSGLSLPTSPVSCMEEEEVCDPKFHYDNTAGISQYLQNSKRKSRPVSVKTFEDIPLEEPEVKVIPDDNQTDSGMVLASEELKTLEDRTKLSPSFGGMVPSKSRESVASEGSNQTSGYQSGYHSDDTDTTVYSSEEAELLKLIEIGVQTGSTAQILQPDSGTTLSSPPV
Procedure, shortened: as §1

NEK9 = molecular target: T3, NEK9 (Homo sapiens, UniProt Q8TD19)
T3 construct: purchased Reaction Biology Corp
T3 sequence (Q8TD19 1-979): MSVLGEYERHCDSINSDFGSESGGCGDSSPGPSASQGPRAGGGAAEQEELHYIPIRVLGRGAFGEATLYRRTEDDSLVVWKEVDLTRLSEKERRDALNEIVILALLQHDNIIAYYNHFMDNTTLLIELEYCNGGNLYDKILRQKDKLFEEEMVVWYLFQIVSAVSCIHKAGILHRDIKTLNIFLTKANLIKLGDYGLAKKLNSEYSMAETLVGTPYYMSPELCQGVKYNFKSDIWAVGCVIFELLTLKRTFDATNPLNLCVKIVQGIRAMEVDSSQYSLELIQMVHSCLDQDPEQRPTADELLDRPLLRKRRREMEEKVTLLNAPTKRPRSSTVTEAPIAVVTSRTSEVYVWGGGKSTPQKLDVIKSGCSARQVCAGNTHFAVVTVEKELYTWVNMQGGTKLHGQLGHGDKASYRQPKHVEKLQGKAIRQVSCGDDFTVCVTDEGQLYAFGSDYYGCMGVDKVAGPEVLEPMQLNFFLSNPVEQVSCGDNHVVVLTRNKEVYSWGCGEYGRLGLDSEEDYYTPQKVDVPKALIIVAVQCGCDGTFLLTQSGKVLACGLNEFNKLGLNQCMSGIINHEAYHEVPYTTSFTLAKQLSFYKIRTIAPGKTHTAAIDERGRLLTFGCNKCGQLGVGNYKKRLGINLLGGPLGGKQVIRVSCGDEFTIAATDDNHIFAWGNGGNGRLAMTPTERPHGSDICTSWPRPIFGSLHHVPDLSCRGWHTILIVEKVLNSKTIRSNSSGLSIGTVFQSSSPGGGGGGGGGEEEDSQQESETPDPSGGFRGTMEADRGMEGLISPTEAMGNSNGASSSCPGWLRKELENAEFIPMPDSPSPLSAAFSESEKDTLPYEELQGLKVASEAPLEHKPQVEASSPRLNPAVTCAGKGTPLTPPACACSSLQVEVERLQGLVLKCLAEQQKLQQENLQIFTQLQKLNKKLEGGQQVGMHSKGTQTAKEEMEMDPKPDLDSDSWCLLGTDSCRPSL
Procedure, shortened: as §1

ABL1 = molecular target: T4, ABL1 (Homo sapiens, UniProt P00519)
T4 construct: purchased Reaction Biology Corp
T4 sequence (P00519 whole entry): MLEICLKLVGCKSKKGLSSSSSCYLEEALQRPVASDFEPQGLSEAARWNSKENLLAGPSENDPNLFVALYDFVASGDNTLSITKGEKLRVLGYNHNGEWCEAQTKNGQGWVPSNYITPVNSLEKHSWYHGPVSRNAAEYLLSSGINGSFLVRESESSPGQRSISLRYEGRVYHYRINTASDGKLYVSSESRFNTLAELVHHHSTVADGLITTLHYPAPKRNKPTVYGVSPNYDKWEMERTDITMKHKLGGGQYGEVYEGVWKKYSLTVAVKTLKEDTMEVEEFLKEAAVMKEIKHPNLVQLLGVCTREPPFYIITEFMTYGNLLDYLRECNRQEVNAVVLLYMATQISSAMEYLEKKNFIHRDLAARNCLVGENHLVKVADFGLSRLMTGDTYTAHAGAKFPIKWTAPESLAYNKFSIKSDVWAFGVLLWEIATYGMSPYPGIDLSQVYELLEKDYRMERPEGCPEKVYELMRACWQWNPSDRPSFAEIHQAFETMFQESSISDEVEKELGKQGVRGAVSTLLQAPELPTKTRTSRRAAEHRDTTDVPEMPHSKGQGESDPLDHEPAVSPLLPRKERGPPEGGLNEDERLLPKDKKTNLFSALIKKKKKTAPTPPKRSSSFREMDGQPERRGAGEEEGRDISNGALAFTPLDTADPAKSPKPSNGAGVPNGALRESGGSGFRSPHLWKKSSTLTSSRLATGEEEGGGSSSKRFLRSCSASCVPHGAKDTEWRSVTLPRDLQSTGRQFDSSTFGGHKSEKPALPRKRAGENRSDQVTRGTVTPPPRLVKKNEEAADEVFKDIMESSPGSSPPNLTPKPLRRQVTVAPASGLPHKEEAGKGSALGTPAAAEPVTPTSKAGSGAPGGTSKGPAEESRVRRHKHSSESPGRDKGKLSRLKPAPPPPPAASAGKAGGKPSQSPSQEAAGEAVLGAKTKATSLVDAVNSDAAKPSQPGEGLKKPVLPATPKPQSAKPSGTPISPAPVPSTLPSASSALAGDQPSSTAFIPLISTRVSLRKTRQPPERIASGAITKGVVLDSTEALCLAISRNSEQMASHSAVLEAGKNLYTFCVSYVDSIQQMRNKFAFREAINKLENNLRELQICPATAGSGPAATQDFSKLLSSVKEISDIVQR
Procedure, shortened: as §1

HIPK2 = molecular target: T5, HIPK2 (Homo sapiens, UniProt Q9H2X6)
T5 construct: purchased Reaction Biology Corp
T5 sequence (Q9H2X6 whole entry): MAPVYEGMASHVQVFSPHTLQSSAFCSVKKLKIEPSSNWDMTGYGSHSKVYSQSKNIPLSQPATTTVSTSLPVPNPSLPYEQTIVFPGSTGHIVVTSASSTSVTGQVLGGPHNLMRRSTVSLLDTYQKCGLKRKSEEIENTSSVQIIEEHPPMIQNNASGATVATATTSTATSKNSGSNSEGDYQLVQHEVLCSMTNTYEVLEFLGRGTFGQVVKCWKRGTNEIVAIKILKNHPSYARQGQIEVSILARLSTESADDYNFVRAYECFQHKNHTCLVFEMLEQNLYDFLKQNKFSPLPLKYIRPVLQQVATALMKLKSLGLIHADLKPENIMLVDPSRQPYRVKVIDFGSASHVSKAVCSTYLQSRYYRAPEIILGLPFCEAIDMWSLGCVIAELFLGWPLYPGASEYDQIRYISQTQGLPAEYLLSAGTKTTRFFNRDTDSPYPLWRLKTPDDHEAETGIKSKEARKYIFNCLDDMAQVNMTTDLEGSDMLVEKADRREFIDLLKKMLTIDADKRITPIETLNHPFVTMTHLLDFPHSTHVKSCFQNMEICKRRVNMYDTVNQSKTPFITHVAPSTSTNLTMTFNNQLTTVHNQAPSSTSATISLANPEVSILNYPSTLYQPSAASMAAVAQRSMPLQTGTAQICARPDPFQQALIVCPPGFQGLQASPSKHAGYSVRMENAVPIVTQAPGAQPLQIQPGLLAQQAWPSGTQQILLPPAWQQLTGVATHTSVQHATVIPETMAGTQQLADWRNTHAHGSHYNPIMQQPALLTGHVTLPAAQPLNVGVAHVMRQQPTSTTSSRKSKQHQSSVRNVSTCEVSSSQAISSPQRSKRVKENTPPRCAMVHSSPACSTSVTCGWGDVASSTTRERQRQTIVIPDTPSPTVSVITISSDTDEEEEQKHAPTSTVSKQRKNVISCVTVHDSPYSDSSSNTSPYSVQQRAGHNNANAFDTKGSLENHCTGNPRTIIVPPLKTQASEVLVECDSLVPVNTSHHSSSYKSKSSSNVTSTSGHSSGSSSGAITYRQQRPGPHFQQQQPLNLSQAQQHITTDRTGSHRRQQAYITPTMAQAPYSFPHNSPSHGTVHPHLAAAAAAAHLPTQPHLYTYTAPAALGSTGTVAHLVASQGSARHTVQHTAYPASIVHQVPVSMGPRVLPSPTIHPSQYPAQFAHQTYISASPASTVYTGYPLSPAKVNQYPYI
Procedure, shortened: as §1

[1] = read-out: % Enzyme Activity (relative to DMSO controls) Run 1
[2] = read-out: % Enzyme Activity (relative to DMSO controls) Run 2

C=CC(=O)Nc1cccc(Nc2nc(Nc3ccc(OCCOC)c(F)c3)ncc2F)c1 [Compound 2]
inhibition at 3 µM (TAOK2/TAO1): 3.53% | remaining activity at 3 µM (TAOK2/TAO1; [1]): 98.5% | remaining activity at 3 µM (TAOK2/TAO1; [2]): 94.4% | inhibition at 3 µM (KDR/VEGFR2): 17.7% | remaining activity at 3 µM (KDR/VEGFR2; [1]): 83.3% | remaining activity at 3 µM (KDR/VEGFR2; [2]): 81.2% | inhibition at 3 µM (NEK9): 15.9% | remaining activity at 3 µM (NEK9; [1]): 83.8% | remaining activity at 3 µM (NEK9; [2]): 84.3% | inhibition at 3 µM (ABL1): 54.7% | remaining activity at 3 µM (ABL1; [1]): 45.4% | remaining activity at 3 µM (ABL1; [2]): 45.2% | inhibition at 3 µM (HIPK2): 2.82% | remaining activity at 3 µM (HIPK2; [1]): 95.8% | remaining activity at 3 µM (HIPK2; [2]): 98.6%
